For one test, the target named is ACC2 (Homo sapiens (Human), UniProt O00763). Kind of test: ACC2 enzyme activity assay (ADP-Glo). Conditions: ACC2 enzyme 1.1 nM working solution, room temperature. Format: biochemical. On the procedure:
(§1) Compound preparation: the compounds of the present disclosure prepared in the above examples and the control compound were respectively formulated into 10 mM with DMSO for use.
(§2) Preparation of 1× reaction buffer (pH=7.4): HEPES stock solutions (1 M), MgCl2 (1 M), BRIJ-35 (10%), potassium citrate buffer (1 M), BSA (10 mg/mL) and DTT (500 mM) were formulated to enzyme reaction buffer containing HEPES (50 mM), MgCl2 (2 mM), BRIJ-35 (0.01%), potassium citrate buffer (2 mM), BSA (50 Gg/mL) and DTT (2 mM).
The mixture was incubated at room temperature for 15 min.
(§3) Negative control group: menstruum containing 5% DMSO; positive control group: menstruum containing 100 nM ND-630. The average values of each concentration and the positive and negative controls were calculated, and the standard deviation was calculated. […] The inhibition rate data was fitted by nonlinear regression equation to calculate IC50 of each compound. The nonlinear regression equation was Y=lowest value+(highest value−lowest value)/(1+10^((Log IC50−X)×HillSlope)), among which X is logarithm of the compound concentration and Y is inhibition percent (%).
On the technique in general: ADP-Glo first removes unused ATP, then detects ADP through luciferase.

The target of a further test is ACC1 (Homo sapiens (Human), UniProt Q13085). Kind of test: ACC1 enzyme activity assay (ADP-Glo). Format: biochemical. As to conditions: ACC1 enzyme 2 nM working solution, room temperature. As to the method:
as §1, §2
4.5 μL of 2.2×ACC1 enzyme (2 nM) working solution was added to a 384-well plate; and then 0.5 μL of different concentrations of compound were added. The mixture was incubated at room temperature for 15 min.
as §3

Each structure is given as a SMILES string.

ACC2, sequence (O00763 whole entry): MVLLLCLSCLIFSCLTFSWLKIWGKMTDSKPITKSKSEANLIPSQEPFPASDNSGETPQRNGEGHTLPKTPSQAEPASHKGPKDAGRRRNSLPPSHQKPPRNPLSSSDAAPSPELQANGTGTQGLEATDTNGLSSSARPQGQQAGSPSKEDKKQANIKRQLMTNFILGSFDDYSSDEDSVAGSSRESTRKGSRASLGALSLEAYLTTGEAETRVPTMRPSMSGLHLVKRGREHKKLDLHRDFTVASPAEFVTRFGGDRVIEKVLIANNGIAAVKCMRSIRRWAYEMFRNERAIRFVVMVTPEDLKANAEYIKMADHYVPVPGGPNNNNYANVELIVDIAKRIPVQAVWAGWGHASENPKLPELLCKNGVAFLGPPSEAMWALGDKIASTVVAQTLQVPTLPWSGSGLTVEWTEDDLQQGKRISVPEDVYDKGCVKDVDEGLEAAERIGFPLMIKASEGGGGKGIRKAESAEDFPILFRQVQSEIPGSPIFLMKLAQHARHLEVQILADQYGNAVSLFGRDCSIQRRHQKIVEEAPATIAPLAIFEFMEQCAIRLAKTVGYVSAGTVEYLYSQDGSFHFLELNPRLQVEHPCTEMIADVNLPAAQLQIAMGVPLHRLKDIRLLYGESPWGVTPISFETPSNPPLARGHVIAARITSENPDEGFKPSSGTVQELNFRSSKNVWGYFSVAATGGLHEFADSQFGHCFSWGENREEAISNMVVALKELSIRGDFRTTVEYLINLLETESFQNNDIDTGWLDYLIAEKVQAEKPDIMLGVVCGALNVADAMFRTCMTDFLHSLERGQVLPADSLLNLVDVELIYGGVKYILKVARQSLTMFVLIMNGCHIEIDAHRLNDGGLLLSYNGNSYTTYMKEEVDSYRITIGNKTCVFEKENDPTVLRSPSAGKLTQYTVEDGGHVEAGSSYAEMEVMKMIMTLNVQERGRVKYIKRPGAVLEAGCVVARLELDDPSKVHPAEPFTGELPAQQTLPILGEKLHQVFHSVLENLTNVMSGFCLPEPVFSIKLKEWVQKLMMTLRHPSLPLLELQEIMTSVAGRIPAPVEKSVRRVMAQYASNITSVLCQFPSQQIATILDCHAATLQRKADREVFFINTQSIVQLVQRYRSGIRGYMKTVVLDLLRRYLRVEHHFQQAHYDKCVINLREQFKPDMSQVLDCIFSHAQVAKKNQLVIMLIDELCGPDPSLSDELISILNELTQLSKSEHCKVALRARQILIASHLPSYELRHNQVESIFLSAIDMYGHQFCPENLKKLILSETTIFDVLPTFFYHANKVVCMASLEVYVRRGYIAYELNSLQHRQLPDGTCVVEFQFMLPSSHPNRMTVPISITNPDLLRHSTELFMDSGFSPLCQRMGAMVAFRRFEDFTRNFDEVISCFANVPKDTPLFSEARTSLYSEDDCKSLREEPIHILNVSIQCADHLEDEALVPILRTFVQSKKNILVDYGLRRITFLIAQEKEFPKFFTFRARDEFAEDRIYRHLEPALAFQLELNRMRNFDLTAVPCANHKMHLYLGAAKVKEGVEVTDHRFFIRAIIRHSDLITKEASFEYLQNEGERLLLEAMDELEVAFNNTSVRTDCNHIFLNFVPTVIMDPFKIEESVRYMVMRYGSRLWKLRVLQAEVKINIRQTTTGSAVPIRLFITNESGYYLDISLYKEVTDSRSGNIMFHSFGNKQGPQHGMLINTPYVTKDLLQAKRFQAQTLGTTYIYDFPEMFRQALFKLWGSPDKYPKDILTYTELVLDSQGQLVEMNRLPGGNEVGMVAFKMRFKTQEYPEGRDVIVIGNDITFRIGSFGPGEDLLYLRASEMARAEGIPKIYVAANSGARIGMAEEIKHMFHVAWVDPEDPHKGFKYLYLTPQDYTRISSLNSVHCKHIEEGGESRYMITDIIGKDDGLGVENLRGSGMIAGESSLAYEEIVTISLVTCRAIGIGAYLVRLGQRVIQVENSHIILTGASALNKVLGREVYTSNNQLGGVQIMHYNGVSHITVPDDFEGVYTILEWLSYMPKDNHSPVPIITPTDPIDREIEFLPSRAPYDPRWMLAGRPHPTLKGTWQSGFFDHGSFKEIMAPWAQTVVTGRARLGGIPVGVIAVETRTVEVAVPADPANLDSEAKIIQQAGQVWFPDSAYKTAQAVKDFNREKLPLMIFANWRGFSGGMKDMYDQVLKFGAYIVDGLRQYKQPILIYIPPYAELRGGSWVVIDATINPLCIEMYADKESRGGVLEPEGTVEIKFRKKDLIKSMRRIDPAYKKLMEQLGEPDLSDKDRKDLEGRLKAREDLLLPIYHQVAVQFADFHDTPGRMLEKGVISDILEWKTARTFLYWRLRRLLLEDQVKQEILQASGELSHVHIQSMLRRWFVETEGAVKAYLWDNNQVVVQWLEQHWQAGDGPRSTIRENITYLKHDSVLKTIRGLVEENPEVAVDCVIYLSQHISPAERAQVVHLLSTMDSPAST

Consider `CCS(=O)(=O)N1CC(n2c(=O)c3c(C)c(-c4ncco4)sc3n(CC(OC3CCOCC3)c3ccccc3OC)c2=O)C1` (stereo not drawn) [Example 10, 3-(1-(ethylsulfonyl)azetidin-3-yl)-1-(2-(2-methoxyphenyl)-2-((tetrahydro-2H-pyran-4-yl)oxy)ethyl)-5-methyl-6-(oxazol-2-yl)thieno[2,3-d]pyrimidine-2,4(1H, 3H)-dione], for which the values for the concentration for half-maximal inhibition (IC50) on ACC2 and against ACC1 were 6.85 nM and 1.35 nM, respectively.
For `COc1ccccc1C(Cn1c(=O)n(C2CN(C(=O)N3CCOCC3)C2)c(=O)c2c(C)c(-c3ncco3)sc21)OC1CCOCC1` (stereo not drawn) [Example 12, 1-(2-(2-methoxyphenyl)-2-((tetrahydro-2H-pyran-4-yl)oxy)ethyl)-5-methyl-3-(1-(morpholine-4-formyl)azetidin-3-yl)-6-(oxazol-2-yl)thieno[2,3-d]pyrimidine-2,4(1H,3H)-dione] the same measures were 8.04 nM and 1.22 nM.
On the same counts, the results for `COc1ccccc1C(Cn1c(=O)n(-c2cccc(C(=O)O)c2F)c(=O)c2c(C)c(-c3ncco3)sc21)OC1CCOCC1` (stereo not drawn) [Example 28, 2-Fluoro-3-(1-(2-(2-methoxyphenyl)-2-((tetrahydro-2H-pyran-4-yl)oxy)ethyl)-5-methyl-6-(oxazol-2-yl)-2,4-dioxo-1,4-dihydrothieno[2,3-d]pyrimidin-3(2H)-yl)benzoic Acid] are 7.8 nM and 1.48 nM.
On the same counts, the results for `COc1ccccc1C(Cn1c(=O)n(C2CNC2)c(=O)c2c(C)c(-c3ncco3)sc21)OC1CCOCC1` (stereo not drawn) [Example 6, 3-(azetidin-3-yl)-1-(2-(2-methoxyphenyl)-2-((tetrahydro-2H-pyran-4-yl)oxy)ethyl)-5-methyl-6-(oxazol-2-yl)thieno[2,3-d]pyrimidine-2,4(1H,3H)-dione] are 9.64 nM and 2.81 nM.
With `COc1ccccc1C(Cn1c(=O)n(-c2ccc(C(=O)O)cc2OC)c(=O)c2c(C)c(-c3ncco3)sc21)OC1CCOCC1` (stereo not drawn) [Example 26, 3-methoxy-4-(1-(2-(2-methoxyphenyl)-2-((tetrahydro-2H-pyran-4-yl)oxy)ethyl)-5-methyl-6-(oxazol-2-yl)-2,4-dioxo-1,4-dihydrothieno[2,3-d]pyrimidin-3(2H)-yl)benzoic Acid], the figures for the half-inhibitory concentration (IC50) at ACC2 and against ACC1 were 10.3 nM and 0.87 nM, respectively.
As for `COc1ccccc1C(Cn1c(=O)n(C(C)(C)C(=O)O)c(=O)c2c(C)c(-c3ncco3)sc21)OC1CCN(S(C)(=O)=O)CC1` (stereo not drawn) [Example 22], the 50% inhibitory concentration (IC50) (commonly the concentration that inhibits the measured activity by half) is 5.13 nM against ACC2 and 0.63 nM on ACC1.
`COc1ccccc1C(Cn1c(=O)n(C2CN(C(=O)c3ncc[nH]3)C2)c(=O)c2c(C)c(-c3ncco3)sc21)OC1CCOCC1` (stereo not drawn) [Example 14]: the IC50 at ACC2 was 7.85 nM; on ACC1, 1.69 nM.
Turning to `COc1ccccc1C(Cn1c(=O)n(C2CN(S(C)(=O)=O)C2)c(=O)c2c(C)c(-c3ncco3)sc21)OC1CCOCC1` (stereo not drawn) [Example 9, 1-(2-(2-methoxyphenyl)-2-((tetrahydro-2H-pyran-4-yl)oxy)ethyl)-5-methyl-3-(1-(methylsulfonyl)azetidin-3-yl)-6-(oxazol-2-yl)thieno[2,3-d]pyrimidine-2,4(1H,3H)-dione], the figures for the IC50 against ACC2 and at ACC1 were 7.92 nM and 2.03 nM, respectively.
For `COc1ccccc1C(Cn1c(=O)n(C(C)(C)C(=O)O)c(=O)c2c(C)c(-c3ncco3)sc21)OC1CCN(C(C)=O)CC1` (stereo not drawn) [Example 20, 2-(1-(2-((1-acetylpiperidin-4-yl)oxy)-2-(2-methoxyphenyl)ethyl)-5-methyl-6-(oxazol-2-yl)-2,4-dioxo-1,4-dihydrothieno[2,3-d]pyrimidin-3(2H)-yl)-2-methylpropionic Acid] the same measures were 8.03 nM and 0.91 nM.
On the same counts, the results for `COc1ccccc1C(Cn1c(=O)n(C2CN(C(=O)C3CC3)C2)c(=O)c2c(C)c(-c3ncco3)sc21)OC1CCOCC1` (stereo not drawn) [Example 8, 3-(1-(cyclopropanecarbonyl)azetidin-3-yl)-1-(2-(2-methoxyphenyl)-2-((tetrahydro-2H-pyran-4-yl)oxy)ethyl)-5-methyl-6-thieno[2,3-d]pyrimidine-2,4(1H,3H)-dione] are 13.1 nM and 1.12 nM.
For `COc1ccccc1C(Cn1c(=O)n(-c2cccc(C(=O)O)c2OC)c(=O)c2c(C)c(-c3ncco3)sc21)OC1CCOCC1` (stereo not drawn) [Example 29, 2-Methoxy-3-(1-(2-(2-methoxyphenyl)-2-((tetrahydro-2H-pyran-4-yl)oxy)ethyl)-5-methyl-6-(oxazol-2-yl)-2,4-dioxo-1,4-dihydrothieno[2,3-d]pyrimidin-3(2H)-yl)benzoic Acid] the same measures were 14.1 nM and 2.13 nM.
In turn, `COc1ccccc1C(Cn1c(=O)n(C2CN(C(=O)N3CC(C)(C(=O)O)C3)C2)c(=O)c2c(C)c(-c3ncco3)sc21)OC1CCOCC1` (stereo not drawn) [Example 15, 1-(3-(1-(2-(2-methoxyphenyl)-2-((tetrahydro-2H-pyran-4-yl)oxy)ethyl)-5-methyl-6-(oxazol-2-yl)-2,4-dioxo-1,2-dihydrothieno[2,3-d]pyrimidin-3 (4H)-yl)azetidine-1-carbonyl)-3-methylazetidine-3-carboxylic Acid] registered a concentration for half-maximal inhibition (IC50) against ACC1 of 8.79 nM.
Take `COc1ccccc1[C@H](Cn1c(=O)n([C@H]2C[C@](C)(C(=O)O)C2)c(=O)c2c(C)c(-c3ncco3)sc21)OC1CCOCC1` [Example 3, (1R,3r)-3-(1-((R)-2-(2-methoxyphenyl)-2-((tetrahydro-2H-pyran-4-yl)oxy)ethyl)-5-methyl-6-(oxazol-2-yl)-2,4-dioxo-1,4-dihydrothieno[2,3-d]pyrimidine-3(2H)-yl)-1-methylcyclobutanecarboxylic Acid]: the IC50 came to 11.9 nM against ACC2 and 1 nM against ACC1.
On the same counts, the results for `COc1ccccc1C(Cn1c(=O)n(C2CN(C(=O)c3ccccn3)C2)c(=O)c2c(C)c(-c3ncco3)sc21)OC1CCOCC1` (stereo not drawn) [Example 13, 1-(2-(2-methoxyphenyl)-2-((tetrahydro-2H-pyran-4-yl)oxy)ethyl)-5-methyl-6-(oxazol-2-yl)-3-(1-pyridineformylazetidin-3-yl)thieno[2,3-d]pyrimidine-2,4(1H,3H)-dione] are 11.6 nM and 2.33 nM.
